This is an account of results in patent US6413517B1, “Identification of broadly reactive DR restricted epitopes” (Epimmune, Inc., priority 1997, dated 2002).

No end group written: not given here.

The first test concerns the target T1, DRB1*0901 (DR9) (Homo sapiens, UniProt P01903+P01911, A100R/A103E/D57H/D86V/F55Y/F60I/F76Y/I96F/K127E/L162R/M171V/P40D/Q125H/Q99R/R33Q/R42F/S133A/S66N/T210M/V115G/W38K/Y107V/Y59G/Y89S).
T1 construct: Epstein-Barr virus (EBV) transformed homozygous cell lines were used as sources; endogenous in cells
Put plainly: biochemical. The class given is binding. Conditions: Binding Capacity (IC50% nM) DR9.
For LFHYYFLSEKAPGSTV [Peptide 1136.04], the IC50 stood at 2880 nM.

The sequence LWWSTMYLTHHYFVDL [Peptide 1136.46] returned an IC50 of over 10000 nM.

Staying with this test, now noted: read-out: Binding Capacity (IC 50% nM) Other Alleles DR9.
Turning to LFHYYFLSEKAPGSTV [Peptide 1136.04], the IC50 was over 1000 nM.

For LWWSTMYLTHHYFVDL [Peptide 1136.46], the IC50 is over 1000 nM.

Another test addresses T2, DRB1*0401 (DR4w4) (Homo sapiens, UniProt P01903+P01911, A100K/A169T/F76Y/I96L/K127E/L162R/M171V/N62H/P40V/Q125Y/R42H/S133A/S149N/S66Y/V115G/V209L/W38E).
T2 construct: Epstein-Barr virus (EBV) transformed homozygous cell lines were used as sources; endogenous in cells; host or cells: PREISS (EBV-transformed homozygous B cell line)
Briefly: biochemical. The class given is binding. Conditions: Binding Capacity (IC 50% nM) DR1,4,7 DR4w4.
LFHYYFLSEKAPGSTV [Peptide 1136.04] yielded an IC50 of under 1000 nM.

LWWSTMYLTHHYFVDL [Peptide 1136.46] had an IC50 of under 1000 nM.

Still in this test, the particulars now being: Binding Capacity (IC50% nM) DR4w4.
Turning to LFHYYFLSEKAPGSTV [Peptide 1136.04], the IC50 was determined as 20 nM.

As for LWWSTMYLTHHYFVDL [Peptide 1136.46], the IC50 turned out to be 985 nM.

A further test deals with T3, DRB1*1201 (DR5w12) (Homo sapiens, UniProt P01903+P01911, A100R/A169T/D57E/D86V/F55L/H45Y/K41T/L162R/M171V/P40S/Q125H/Q178H/Q39Y/Q99D/R42G/S66L/T262R/V114A/V67L/W38E/Y59H/Y61H/Y89S).
T3 construct: Epstein-Barr virus (EBV) transformed homozygous cell lines were used as sources; endogenous in cells; host or cells: Herluf (EBV-transformed homozygous B cell line)
Briefly: biochemical. The class given is binding. The settings on record: Binding Capacity (IC50% nM) DR5w12.
LFHYYFLSEKAPGSTV [Peptide 1136.04]: the IC50 was over 10000 nM.

Take LWWSTMYLTHHYFVDL [Peptide 1136.46]: the IC50 is over 10000 nM.

The same test, now with this note: read-out: Binding Capacity (IC 50% nM) Other Alleles DR5w12.
For LFHYYFLSEKAPGSTV [Peptide 1136.04], the IC50 is over 1000 nM.

For LWWSTMYLTHHYFVDL [Peptide 1136.46], the IC50 was over 1000 nM.

Another test concerns the target T4, DRB5*0101 (DR2w2a) (Homo sapiens, UniProt P01903+Q30154).
T4 construct: Epstein-Barr virus (EBV) transformed homozygous cell lines were used as sources; endogenous in cells; host or cells: GM3107 (EBV-transformed homozygous B cell line)
Briefly: biochemical. The settings on record: Binding Capacity (IC50% nM) DR2w2a. In kind it is binding.
Turning to LWWSTMYLTHHYFVDL [Peptide 1136.46], the IC50 was over 10000 nM.

The same test, now with this note: Binding Capacity (IC 50% nM) Other Alleles DR2w2a.
In the case of LFHYYFLSEKAPGSTV [Peptide 1136.04], the IC50 was under 1000 nM.

The test is the same for the next values; noted with them: read-out: Binding Capacity (IC 50% nM) Other Alleles DR2w2a.
On to LWWSTMYLTHHYFVDL [Peptide 1136.46], for which the IC50 was over 1000 nM.

Another test concerns the target T5, DRB1*0405 (DR4w15) (Homo sapiens, UniProt P01903+P01911, A100R/A169T/D86S/F76Y/I96L/K127E/L162R/M171V/N62H/P40V/Q125Y/R42H/S133A/S149N/S66Y/V115G/V209L/W38E).
T5 construct: Epstein-Barr virus (EBV) transformed homozygous cell lines were used as sources; endogenous in cells; host or cells: KT3 (EBV-transformed homozygous B cell line)
Briefly: biochemical. In kind it is binding. Conditions: Binding Capacity (IC50% nM) DR4w15.
LFHYYFLSEKAPGSTV [Peptide 1136.04] returned an IC50 of 563 nM.

LWWSTMYLTHHYFVDL [Peptide 1136.46]: the IC50 was over 10000 nM.

Staying with this test, now noted: Binding Capacity (IC 50% nM) Other Alleles DR4w15.
For the sequence LFHYYFLSEKAPGSTV [Peptide 1136.04], the IC50 was under 1000 nM.

Still in this test, the particulars now being: read-out: Binding Capacity (IC 50% nM) Other Alleles DR4w15.
LWWSTMYLTHHYFVDL [Peptide 1136.46]: the IC50 is over 1000 nM.

The target in the next test is T6, DRB1*1101 (DR5w11) (Homo sapiens, UniProt P01903+P01911, A100R/A169T/A87E/I96F/K41T/L162R/M171V/P40S/Q125H/Q178H/Q39Y/Q99D/R42S/S66Y/T262R/V115G/W38E).
T6 construct: Epstein-Barr virus (EBV) transformed homozygous cell lines were used as sources; endogenous in cells; host or cells: SWEIG (EBV-transformed homozygous B cell line)
T6 sequence (P01903 26-254, other chains not shown): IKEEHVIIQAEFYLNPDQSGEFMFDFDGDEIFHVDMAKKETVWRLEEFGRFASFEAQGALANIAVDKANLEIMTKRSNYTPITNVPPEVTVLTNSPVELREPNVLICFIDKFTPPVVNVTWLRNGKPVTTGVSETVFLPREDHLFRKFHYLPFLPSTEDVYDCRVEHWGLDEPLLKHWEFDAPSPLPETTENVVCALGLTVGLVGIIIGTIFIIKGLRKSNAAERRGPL
Put plainly: biochemical. The class given is binding. Conditions: Binding Capacity (IC50% nM) DR5w11.
In turn, LFHYYFLSEKAPGSTV [Peptide 1136.04] displayed an IC50 of 69 nM.

For LWWSTMYLTHHYFVDL [Peptide 1136.46], the IC50 is over 10000 nM.

Staying with this test, now noted: Binding Capacity (IC 50% nM) Other Alleles DR5w11.
LFHYYFLSEKAPGSTV [Peptide 1136.04] showed an IC50 of under 1000 nM.

The test is the same for the next values; noted with them: read-out: Binding Capacity (IC 50% nM) Other Alleles DR5w11.
For LWWSTMYLTHHYFVDL [Peptide 1136.46], the IC50 is over 1000 nM.

The target in the next test is T7, DRB1*1501 (DR2w2b) (Homo sapiens, UniProt P01903+P01911).
T7 construct: expressed in transfected cells; host or cells: transfected fibroblasts L466.1
Briefly: biochemical. The settings on record: Binding Capacity (IC50% nM) DR2w2b. In kind it is binding.
The sequence LFHYYFLSEKAPGSTV [Peptide 1136.04] displayed an IC50 of 1260 nM.

Take LWWSTMYLTHHYFVDL [Peptide 1136.46]: the IC50 is over 10000 nM.

The test is the same for the next values; noted with them: read-out: Binding Capacity (IC 50% nM) Other Alleles DR2w2b.
Take LFHYYFLSEKAPGSTV [Peptide 1136.04]: the IC50 was over 1000 nM.

Take LWWSTMYLTHHYFVDL [Peptide 1136.46]: the IC50 is over 1000 nM.

The target of a further test is T8, DRB1*1302 (DR6w19) (Homo sapiens, UniProt P01903+P01911, A100E/A169T/K41T/L162R/M171V/P40S/Q125H/Q178H/Q39Y/Q99D/R42S/S66N/T262R/V115G/W38E/Y61H).
T8 construct: Epstein-Barr virus (EBV) transformed homozygous cell lines were used as sources; the source of Class II molecules the EBV transformed homozygous cell line H0301; endogenous in cells; host or cells: H0301 (EBV-transformed homozygous B cell line)
Put plainly: biochemical. In kind it is binding. Conditions: Binding Capacity (IC50% nM) DR6w19.
LFHYYFLSEKAPGSTV [Peptide 1136.04] had an IC50 of over 10000 nM.

In turn, LWWSTMYLTHHYFVDL [Peptide 1136.46] displayed an IC50 of over 10000 nM.

Still in this test, the particulars now being: read-out: Binding Capacity (IC 50% nM) Other Alleles DR6w19.
With LFHYYFLSEKAPGSTV [Peptide 1136.04], the IC50 is over 1000 nM.

On to LWWSTMYLTHHYFVDL [Peptide 1136.46], for which the IC50 was over 1000 nM.

For a further test, the target named is T9, DRB1*0101 (DR1) (Homo sapiens, UniProt P01903+P01911, A100R/D57E/F55L/F60I/F76Y/I96L/L162R/M171V/P40L/Q125E/R42F/V115G/Y59C).
T9 construct: Epstein-Barr virus (EBV) transformed homozygous cell lines were used as sources; endogenous in cells; host or cells: LG2 (EBV-transformed homozygous B cell line)
Briefly: biochemical. The class given is binding. Conditions: Binding Capacity (IC50% nM) DR1.
With LFHYYFLSEKAPGSTV [Peptide 1136.04], the IC50 is 24 nM.

The test is the same for the next values; noted with them: Binding Capacity (IC 50% nM) DR1,4,7 DRB1.
Sequence LFHYYFLSEKAPGSTV [Peptide 1136.04] returned an IC50 of under 1000 nM.

LWWSTMYLTHHYFVDL [Peptide 1136.46]: the IC50 is under 1000 nM.

The target of the next test is T10, DRB1*0701 (DR7) (Homo sapiens, UniProt P01903+P01911, A100R/A102G/A103Q/D57E/D86V/E43K/F76Y/K127E/L162R/M171V/P40G/Q125H/Q99D/R33Q/R42Y/R54Q/S133A/S66F/T210M/V115G/Y107V/Y59L/Y89S).
T10 construct: Epstein-Barr virus (EBV) transformed homozygous cell lines were used as sources; endogenous in cells; host or cells: PITOUT (EBV-transformed homozygous B cell line)
Briefly: biochemical. In kind it is binding. Conditions: Binding Capacity (IC50% nM) DR7.
LFHYYFLSEKAPGSTV [Peptide 1136.04] yielded an IC50 of 3330 nM.

In turn, LWWSTMYLTHHYFVDL [Peptide 1136.46] displayed an IC50 of 5810 nM.

Staying with this test, now noted: read-out: Binding Capacity (IC 50% nM) DR1,4,7 DR7.
For the sequence LFHYYFLSEKAPGSTV [Peptide 1136.04], the IC50 was over 1000 nM.

On to LWWSTMYLTHHYFVDL [Peptide 1136.46], for which the IC50 is over 1000 nM.

The next test concerns the target T11, DRB1*0802 (DR8w2) (Homo sapiens, UniProt P01903+P01911, A100R/A103L/A169T/F76Y/H45Y/I96F/K41T/L162R/M171V/P40S/Q125H/Q178H/Q39Y/Q99D/R218S/R42G/S66Y/V115G/W38E).
T11 construct: Epstein-Barr virus (EBV) transformed homozygous cell lines were used as sources; endogenous in cells; host or cells: OLL (EBV-transformed homozygous B cell line)
Briefly: biochemical. The class given is binding. The settings on record: Binding Capacity (IC50% nM) DR8w2.
Sequence LFHYYFLSEKAPGSTV [Peptide 1136.04] came in with an IC50 of 55 nM.

For LWWSTMYLTHHYFVDL [Peptide 1136.46], the IC50 is over 10000 nM.

Still in this test, the particulars now being: Binding Capacity (IC 50% nM) Other Alleles DR8w2.
Regarding LFHYYFLSEKAPGSTV [Peptide 1136.04], the IC50 was under 1000 nM.

Still in this test, the particulars now being: read-out: Binding Capacity (IC 50% nM) Other Alleles DR8w2.
For LWWSTMYLTHHYFVDL [Peptide 1136.46], the IC50 is over 1000 nM.

For the next test, the target named is T12, DRB1*0301 (DR3w17) (Homo sapiens, UniProt P01903+P01911, A100K/A102G/A103R/A169T/F55Y/I96L/K41T/L162R/M171V/P40S/Q125H/Q178H/Q39Y/R42S/S66N/T106N/T262R/W38E/Y61H). Put plainly: biochemical. The settings on record: Binding Capacity (IC50% nM) DR3.
Take LFHYYFLSEKAPGSTV [Peptide 1136.04]: the IC50 was over 10000 nM.

Turning to LWWSTMYLTHHYFVDL [Peptide 1136.46], the IC50 is over 10000 nM.

The target in a further test is T12, DRB1*0301 (DR3w17).
Experiment: not given
The settings on record: read-out: Binding Capacity (IC 50% nM) Other Alleles DR3.
On to LFHYYFLSEKAPGSTV [Peptide 1136.04], for which the IC50 was over 1000 nM.

For the sequence LWWSTMYLTHHYFVDL [Peptide 1136.46], the IC50 is over 1000 nM.
